Key:
Assay in all cases: KiNativ kinome profiling in PANC-1 lysate
Type in all cases: binding
[1] = system: MARK1, MARK2; settings: 5 µM; Lys1; EVAVKIIDK
Method in brief: (§1)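 PANC-1 lysates were incubated with 5 μM inhibitor or DMSO, then labeled with a desthiobiotin-ATP acyl-phosphate probe that biotinylates conserved kinase lysines. Tryptic peptides were streptavidin-enriched and quantified by LC-MS/MS, reported as % change in MS signal from duplicate treated and duplicate control samples.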

[2] = target: T1, NEK2 (Homo sapiens, UniProt P51955); settings: Lys2
T1 construct: endogenous in cells; host or cells: PANC-1 cell lysate
Method in brief: as §1

[3] = target: T2, RAF1 (Homo sapiens, UniProt P04049); settings: Lys2
T2 construct: endogenous in cells; host or cells: PANC-1 cell lysate
T2 sequence (P04049 whole entry): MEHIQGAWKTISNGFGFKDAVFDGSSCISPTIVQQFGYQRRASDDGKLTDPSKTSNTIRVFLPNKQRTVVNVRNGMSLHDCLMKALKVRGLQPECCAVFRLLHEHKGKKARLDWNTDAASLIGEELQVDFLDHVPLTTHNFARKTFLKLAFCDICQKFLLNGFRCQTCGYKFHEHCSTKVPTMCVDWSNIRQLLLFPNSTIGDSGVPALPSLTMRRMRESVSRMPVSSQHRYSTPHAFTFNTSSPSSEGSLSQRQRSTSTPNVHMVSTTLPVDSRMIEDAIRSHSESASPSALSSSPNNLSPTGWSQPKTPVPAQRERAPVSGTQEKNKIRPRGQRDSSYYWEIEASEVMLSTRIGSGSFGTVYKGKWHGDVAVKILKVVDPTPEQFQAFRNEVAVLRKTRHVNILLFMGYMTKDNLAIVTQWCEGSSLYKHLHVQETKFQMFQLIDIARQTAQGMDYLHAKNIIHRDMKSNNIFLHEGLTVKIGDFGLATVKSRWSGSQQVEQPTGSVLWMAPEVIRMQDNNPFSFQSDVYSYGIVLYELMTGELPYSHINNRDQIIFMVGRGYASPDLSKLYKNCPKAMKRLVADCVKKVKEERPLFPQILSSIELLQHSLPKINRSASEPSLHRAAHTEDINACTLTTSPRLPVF
Method in brief: as §1

[4] = target: T3, RSK2 domain1 (Homo sapiens, UniProt P51812)
T3 construct: endogenous in cells; host or cells: PANC-1 cell lysate
T3 sequence (P51812 whole entry, the tested form may be a part): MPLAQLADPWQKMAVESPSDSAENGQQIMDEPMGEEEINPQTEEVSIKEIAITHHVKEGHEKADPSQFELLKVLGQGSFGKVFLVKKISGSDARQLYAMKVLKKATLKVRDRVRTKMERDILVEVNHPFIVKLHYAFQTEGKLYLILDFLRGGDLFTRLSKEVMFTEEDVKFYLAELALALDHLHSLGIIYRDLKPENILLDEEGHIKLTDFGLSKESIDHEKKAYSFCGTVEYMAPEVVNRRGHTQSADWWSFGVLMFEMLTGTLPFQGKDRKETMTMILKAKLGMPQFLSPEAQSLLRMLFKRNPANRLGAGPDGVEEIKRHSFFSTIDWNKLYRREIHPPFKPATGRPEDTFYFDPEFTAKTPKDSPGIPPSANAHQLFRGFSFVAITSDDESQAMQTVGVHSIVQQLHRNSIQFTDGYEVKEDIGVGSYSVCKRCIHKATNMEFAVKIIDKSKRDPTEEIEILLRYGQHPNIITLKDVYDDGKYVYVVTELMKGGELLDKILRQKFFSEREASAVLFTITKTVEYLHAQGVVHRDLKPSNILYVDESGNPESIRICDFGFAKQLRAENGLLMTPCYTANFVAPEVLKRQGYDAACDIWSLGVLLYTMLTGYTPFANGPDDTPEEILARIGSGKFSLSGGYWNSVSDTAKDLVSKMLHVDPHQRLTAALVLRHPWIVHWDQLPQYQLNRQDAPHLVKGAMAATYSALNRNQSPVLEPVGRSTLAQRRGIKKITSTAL
Method in brief: as §1

[5] = target: T4, Erk2 (Homo sapiens, UniProt P28482); settings: Lys2
T4 construct: endogenous in cells; host or cells: PANC-1 lysate
Method in brief: as §1

[6] = system: JNK1, JNK2, JNK3; settings: 5 µM; Lys2; DLKPSNIVVK
Method in brief: as §1

[7] = target: T5, CDK4 (Homo sapiens, UniProt P11802); settings: Lys2
T5 construct: endogenous in cells; host or cells: PANC-1 cell lysate
T5 sequence (P11802 whole entry): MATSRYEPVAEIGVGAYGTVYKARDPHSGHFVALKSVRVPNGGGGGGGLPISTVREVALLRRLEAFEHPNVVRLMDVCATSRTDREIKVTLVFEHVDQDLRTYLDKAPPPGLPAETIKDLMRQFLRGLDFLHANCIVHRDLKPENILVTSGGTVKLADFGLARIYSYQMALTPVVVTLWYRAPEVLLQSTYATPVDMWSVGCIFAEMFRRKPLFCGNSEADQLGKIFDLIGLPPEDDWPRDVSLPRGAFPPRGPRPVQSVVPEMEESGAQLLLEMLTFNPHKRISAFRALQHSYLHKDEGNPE
Method in brief: as §1

[8] = system: PKD1, PKD2; settings: 5 µM; Lys2; NIVHCDLKPENVLLASADPFPQVK
Method in brief: as §1

[9] = target: T6, YANK3 (Homo sapiens, UniProt Q86UX6); settings: Lys2
T6 construct: endogenous in cells; host or cells: PANC-1 cell lysate
Method in brief: as §1

[10] = target: T7, CaMK1a (Homo sapiens, UniProt Q14012); settings: Lys1
T7 construct: endogenous in cells; host or cells: PANC-1 cell lysate
Method in brief: as §1

[11] = target: T8, DCAMKL2 (Homo sapiens, UniProt Q8N568); settings: Lys2
T8 construct: endogenous in cells; host or cells: PANC-1 lysate
Method in brief: as §1

[12] = target: T9, CDK2 (Homo sapiens, UniProt P24941)
T9 construct: endogenous in cells; host or cells: PANC-1 cell lysate
Method in brief: as §1

[13] = target: T10, TGFbR2 (Homo sapiens, UniProt P37173); settings: Lys2
T10 construct: endogenous in cells; host or cells: PANC-1 cell lysate
T10 sequence (P37173 23-567): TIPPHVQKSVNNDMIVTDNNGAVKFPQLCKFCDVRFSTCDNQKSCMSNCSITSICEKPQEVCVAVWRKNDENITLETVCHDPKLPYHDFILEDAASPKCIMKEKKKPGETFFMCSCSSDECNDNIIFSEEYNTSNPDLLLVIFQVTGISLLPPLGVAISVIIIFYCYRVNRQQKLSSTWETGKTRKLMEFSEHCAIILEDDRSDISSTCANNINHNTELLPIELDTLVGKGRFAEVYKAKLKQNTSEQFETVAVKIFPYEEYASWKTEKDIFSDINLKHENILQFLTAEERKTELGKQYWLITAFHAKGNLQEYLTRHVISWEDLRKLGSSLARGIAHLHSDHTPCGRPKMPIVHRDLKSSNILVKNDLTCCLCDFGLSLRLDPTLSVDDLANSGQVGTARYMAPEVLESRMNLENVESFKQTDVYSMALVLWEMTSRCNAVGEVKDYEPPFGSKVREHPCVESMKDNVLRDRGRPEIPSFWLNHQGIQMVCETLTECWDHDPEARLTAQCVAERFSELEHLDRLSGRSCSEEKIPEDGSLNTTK
Method in brief: as §1

[14] = system: Wnk1, Wnk2, Wnk4; settings: 5 µM; ATP Loop; IGDLGLATLKR
Method in brief: as §1

[15] = target: T11, CK1g1 (Homo sapiens, UniProt Q9HCP0); settings: Lys2
T11 construct: endogenous in cells; host or cells: PANC-1 cell lysate
Method in brief: as §1

[16] = target: T12, MARK2 (Homo sapiens, UniProt Q7KZI7); settings: Lys1
T12 construct: endogenous in cells; host or cells: PANC-1 cell lysate
Method in brief: as §1

[17] = target: T13, PKCi (Homo sapiens, UniProt P41743)
T13 construct: endogenous in cells; host or cells: PANC-1 cell lysate
T13 sequence (P41743 whole entry): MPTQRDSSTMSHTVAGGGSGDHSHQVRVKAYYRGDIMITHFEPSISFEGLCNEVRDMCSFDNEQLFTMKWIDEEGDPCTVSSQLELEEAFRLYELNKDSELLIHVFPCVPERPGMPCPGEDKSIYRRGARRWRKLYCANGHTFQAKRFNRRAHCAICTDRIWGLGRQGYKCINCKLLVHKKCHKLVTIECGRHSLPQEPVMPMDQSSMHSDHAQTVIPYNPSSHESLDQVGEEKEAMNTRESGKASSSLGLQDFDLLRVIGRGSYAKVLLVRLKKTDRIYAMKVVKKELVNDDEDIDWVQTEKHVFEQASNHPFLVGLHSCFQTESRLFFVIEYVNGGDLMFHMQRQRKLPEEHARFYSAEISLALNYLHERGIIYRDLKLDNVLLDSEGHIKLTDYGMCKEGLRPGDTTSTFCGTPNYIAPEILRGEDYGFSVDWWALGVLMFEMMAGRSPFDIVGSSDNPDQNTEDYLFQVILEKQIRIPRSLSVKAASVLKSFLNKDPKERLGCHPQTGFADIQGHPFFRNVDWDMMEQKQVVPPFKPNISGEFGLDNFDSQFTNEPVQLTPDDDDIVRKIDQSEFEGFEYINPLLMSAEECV
Method in brief: as §1

[18] = target: T14, ROCK1 (Homo sapiens, UniProt Q13464); settings: Other
T14 construct: endogenous in cells; host or cells: PANC-1 cell lysate
T14 sequence (Q13464 whole entry): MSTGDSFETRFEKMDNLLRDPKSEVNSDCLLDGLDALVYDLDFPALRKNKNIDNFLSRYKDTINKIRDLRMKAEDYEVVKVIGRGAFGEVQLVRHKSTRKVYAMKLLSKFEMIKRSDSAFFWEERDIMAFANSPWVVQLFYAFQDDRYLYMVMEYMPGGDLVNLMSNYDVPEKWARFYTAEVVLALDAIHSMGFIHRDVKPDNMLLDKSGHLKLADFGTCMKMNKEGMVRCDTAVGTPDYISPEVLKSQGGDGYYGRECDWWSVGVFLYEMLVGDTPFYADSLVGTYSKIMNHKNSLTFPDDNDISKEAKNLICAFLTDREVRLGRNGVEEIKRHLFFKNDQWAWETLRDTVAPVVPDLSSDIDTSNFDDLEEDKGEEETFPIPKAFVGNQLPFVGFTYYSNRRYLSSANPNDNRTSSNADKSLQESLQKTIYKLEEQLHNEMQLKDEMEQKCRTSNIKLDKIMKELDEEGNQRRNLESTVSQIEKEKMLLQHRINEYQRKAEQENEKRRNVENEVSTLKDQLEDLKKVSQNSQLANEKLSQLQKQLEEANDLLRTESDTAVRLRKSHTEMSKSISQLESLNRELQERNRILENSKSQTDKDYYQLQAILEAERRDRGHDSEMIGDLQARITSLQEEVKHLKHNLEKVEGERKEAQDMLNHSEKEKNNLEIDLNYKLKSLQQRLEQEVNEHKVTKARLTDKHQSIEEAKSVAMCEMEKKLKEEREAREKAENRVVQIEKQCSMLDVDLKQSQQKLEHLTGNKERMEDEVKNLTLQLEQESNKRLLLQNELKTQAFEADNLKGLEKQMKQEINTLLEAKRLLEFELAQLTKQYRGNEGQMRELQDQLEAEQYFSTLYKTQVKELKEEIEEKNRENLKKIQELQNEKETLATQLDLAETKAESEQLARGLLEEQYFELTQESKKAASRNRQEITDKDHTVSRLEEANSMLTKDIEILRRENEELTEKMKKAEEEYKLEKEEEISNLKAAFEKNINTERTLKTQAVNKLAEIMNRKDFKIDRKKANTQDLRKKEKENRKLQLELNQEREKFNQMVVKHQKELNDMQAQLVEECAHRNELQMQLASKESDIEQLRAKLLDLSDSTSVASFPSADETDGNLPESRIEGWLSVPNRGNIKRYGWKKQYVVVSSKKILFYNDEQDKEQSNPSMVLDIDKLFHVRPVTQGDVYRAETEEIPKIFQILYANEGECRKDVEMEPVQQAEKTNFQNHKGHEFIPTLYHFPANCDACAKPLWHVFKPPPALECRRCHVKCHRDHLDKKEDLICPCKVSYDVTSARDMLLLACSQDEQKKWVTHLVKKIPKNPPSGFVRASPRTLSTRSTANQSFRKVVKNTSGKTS
Method in brief: as §1

[19] = target: T15, p38a (Homo sapiens, UniProt Q16539)
T15 construct: endogenous in cells; host or cells: PANC-1 cell lysate
T15 sequence (Q16539 whole entry): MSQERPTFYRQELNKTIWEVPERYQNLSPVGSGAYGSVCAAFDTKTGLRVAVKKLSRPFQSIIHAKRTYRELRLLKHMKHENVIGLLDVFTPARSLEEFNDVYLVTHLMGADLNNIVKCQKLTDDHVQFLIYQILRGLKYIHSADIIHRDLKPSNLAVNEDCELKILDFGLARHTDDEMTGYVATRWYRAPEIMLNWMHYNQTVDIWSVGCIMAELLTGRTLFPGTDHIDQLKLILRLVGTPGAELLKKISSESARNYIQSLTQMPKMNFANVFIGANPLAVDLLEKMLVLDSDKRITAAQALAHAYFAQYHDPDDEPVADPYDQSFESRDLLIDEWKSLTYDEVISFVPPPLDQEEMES
Method in brief: as §1

[20] = target: T16, BARK1 (Homo sapiens, UniProt P25098); settings: Lys2
T16 construct: endogenous in cells; host or cells: PANC-1 cell lysate
Method in brief: as §1

[21] = target: T17, GSK3A (Homo sapiens, UniProt P49840); settings: Lys2
T17 construct: we opted to conduct a kinome screen (KiNativ) in PANC-1 cell lysates; endogenous in cells; host or cells: PANC-1 cell lysate
T17 sequence (P49840 whole entry): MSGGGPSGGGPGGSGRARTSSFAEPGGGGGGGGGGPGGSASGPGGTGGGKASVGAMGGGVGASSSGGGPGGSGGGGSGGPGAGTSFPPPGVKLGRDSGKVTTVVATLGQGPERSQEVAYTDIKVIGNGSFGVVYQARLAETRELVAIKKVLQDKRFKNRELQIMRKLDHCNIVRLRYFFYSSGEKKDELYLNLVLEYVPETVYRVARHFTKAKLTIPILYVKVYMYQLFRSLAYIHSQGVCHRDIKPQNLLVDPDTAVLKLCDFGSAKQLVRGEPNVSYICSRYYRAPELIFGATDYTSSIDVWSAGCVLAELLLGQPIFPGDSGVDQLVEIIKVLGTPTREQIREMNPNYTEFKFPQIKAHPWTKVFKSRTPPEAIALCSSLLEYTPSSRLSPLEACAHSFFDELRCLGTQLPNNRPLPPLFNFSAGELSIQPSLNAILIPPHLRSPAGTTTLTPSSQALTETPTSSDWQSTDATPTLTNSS
Method in brief: as §1

[22] = target: T18, MAP3K5 (Homo sapiens, UniProt Q99683); settings: Lys2
T18 construct: endogenous in cells; host or cells: PANC-1 cell lysate
Method in brief: as §1

[23] = target: T19, PCTAIRE2 (Homo sapiens, UniProt Q00537); settings: Lys2
T19 construct: endogenous in cells; host or cells: PANC-1 cell lysate
Method in brief: as §1

[24] = target: T20, CDK11 (Homo sapiens, UniProt Q9BWU1); settings: Lys1
T20 construct: endogenous in cells; host or cells: PANC-1 cell lysate
Method in brief: as §1

[25] = target: T21, MLK3 (Homo sapiens, UniProt Q16584); settings: Lys2
T21 construct: endogenous in cells; host or cells: PANC-1
Method in brief: as §1

[26] = target: T22, MLK4 (Homo sapiens, UniProt Q5TCX8); settings: Lys2
T22 construct: endogenous in cells; host or cells: PANC-1
Method in brief: as §1

[27] = target: T23, TLK1 (Homo sapiens, UniProt Q9UKI8); settings: Lys2
T23 construct: endogenous in cells; host or cells: PANC-1 cell lysate
Method in brief: as §1

Cn1cc(-c2cnc3ccc(NC(=O)Nc4ccc(F)c(C(F)(F)F)c4)cc3n2)cn1 [51-106, 1-(4-Fluoro-3-(trifluoromethyl)phenyl)-3-(3-(1-methyl-1H-pyrazol-4-yl)quinoxalin-6-yl)urea]
% Inhibition [1]: NB (NB = No Binding (≤ 0)) | inhibition at 5 µM [2]: ≤ 0% | inhibition at 5 µM [3]: ≤ 0% | inhibition at 5 µM ([4]; ATP Loop, LTDFGLSKESIDHEKK): ≤ 0% | inhibition at 5 µM ([4]; Lys1, QLYAMKVLK): 23.6% | inhibition at 5 µM [5]: ≤ 0% | % Inhibition [6]: NB (NB = No Binding (≤ 0)) | inhibition at 5 µM [7]: 3.2% | % Inhibition [8]: NB (NB = No Binding (≤ 0)) | inhibition at 5 µM [9]: ≤ 0% | inhibition at 5 µM [10]: ≤ 0% | inhibition at 5 µM [11]: ≤ 0% | % Inhibition ([12]; 5 µM, Lys1, LTGEVVALKK): 12% | inhibition at 5 µM ([12]; Lys1, LTGEVVALKK): 12.3% | inhibition at 5 µM ([12]; Lys2, DLKPQNLLINTEGAIK): ≤ 0% | inhibition at 5 µM [13]: 8.9% | % Inhibition [14]: 4.6% | inhibition at 5 µM [15]: ≤ 0% | inhibition at 5 µM [16]: 5% | % Inhibition ([17]; 5 µM, Lys2, DLKLDNVLLDSEGHIK): NB (NB = No Binding (≤ 0)) | inhibition at 5 µM ([17]; Lys1, […]): ≤ 0% | inhibition at 5 µM [18]: ≤ 0% | inhibition at 5 µM ([19]; Lys2, DLKPSNLAVNEDCELK): ≤ 0% | inhibition at 5 µM ([19]; Other, QELNKTIWEVPER): 7.5% | inhibition at 5 µM [20]: 2.2% | inhibition at 5 µM [21]: ≤ 0% | inhibition at 5 µM [22]: 11.7% | inhibition at 5 µM [23]: 9.7% | inhibition at 5 µM [24]: 4% | inhibition at 5 µM [25]: 1.3% | inhibition at 5 µM [26]: ≤ 0% | inhibition at 5 µM [27]: 6.2%
